US4354039A, “Chlorocitric acids” (Hoffmann-La Roche Inc., priority 1981, dated 1982)
Read-outs that look alike come from different tables or passages of the source.

Experiments:
[1] = Food intake in dogs, pyramiding oral doses (Examples 26 and 27); format: in vivo, beagle dogs
Protocol: Twelve beagle dogs of both sexes weighing 7.6-12.2 kg were used for this test. The test compounds were contained in gelatin capsules for oral administration to two dogs of each sex. The animals were weighed and food consumption calculated daily excluding weekends throughout the test period. Each animal received 800 grams of diet daily consisting of 400 grams of Wayne pellet dog food mixed with 400 ml distilled water. The animals received pyramiding oral doses of the test compound over the three week period. On Monday and Tuesday of the first week the animals were weighed and food consumption was recorded (control). […] Doses of 30, 100 and 300 mg/kg were administered on Monday, Wednesday and Friday respectively during the second week. A final dose of 1000 mg/kg was administered on Monday of the third week.
Food intake was determined by the procedure at pyramiding doses described in EXAMPLE 26.

[2] = Effect on stomach emptying, [14C] glucose load (Example 25); format: in vivo, Rats; conditions: 0.33 mmoles/kg oral, 60 min after [14C] glucose load
Protocol: Rats were trained to consume a 3 hr 70% glucose meal from 8 a.m. to 11 a.m. daily. On the experimental day, compounds were administered orally by intubation 30 min before a [^14 C] glucose load was given also by intubation. […] Sixty minutes later the rats were killed by decapitation; blood and stomachs were collected on ice.
Data are expressed as follows: dpm×10^3 per ml of serum and dpm×10^3 per stomach.

isolated rat hepatocytes = test: Fatty acid and cholesterol synthesis and CO2 production in isolated hepatocytes (Example 23); format: cell-based, Female Charles River rats; conditions: 2 mM, 60 min, 37° C.; for activity at 2000 µM: Rattus norvegicus, Hepatocyte, 1 h
Protocol: Female Charles River rats were fasted 48 hr, then meal-fed a 1% corn oil, 70% glucose diet for 7 to 14 days from 8 to 11 a.m. The isolated rat hepatocytes were prepared by perfusing the liver in situ. The hepatocytes were incubated in an oscillating water bath at 37° C. for 60 min. […] All incubations were done in triplicate and all experiments were repeated at least twice. […] The contents of the center well were transferred to scintillation counting fluid and ^14 CO2 content was determined. […] The media was then acidified, extracted with hexane, and the extract counted (to determine the rate of lipogenesis). The conversion of ^3 H2 O and [^14 C]alanine into fatty acids or sterols was determined in a PDS/3, Mark II liquid scintillation counting system.

[3] = Effect of stereoisomers on food consumption of meal-fed rats (Example 14); format: in vivo, Charles River female rats
Protocol: Animals were fasted 48 hr, then meal-fed the 70% glucose diet described by A. C. […] Following 5 to 12 days alimentation on the meal-feeding regimen, rats were dosed with the appropriate compounds orally by intubation 1/2 hr before the 3 hr meal. Food cups were weighed immediately after the meal. The control group consisted of 5 to 10 rats, while the experimental group consisted of 4 to 6 rats.

[4] = Anorectic activities of stereoisomers, 3-day food consumption and body weight gain (Example 16); format: in vivo, Charles River female rats; conditions: 1.32 mmoles/kg oral, 3 days
Protocol: Charles River female rats (Charles River Breeding Laboratories, Wilmington, Mass.), weighing 196 to 210 g, were individually housed in wire-bottomed cages in a temperature-regulated (22° C.) light-controlled room (12 hr light, 6 a.m. to 6 p.m. and 12 hr dark, 6 p.m. to 6 a.m.). Animals were fasted 48 hr, then meal-fed a 70% glucose diet from 8 to 11 a.m. Following 5 to 12 days alimentation on the meal-feeding regimen, rats were dosed with the appropriate compounds orally by intubation 1/2 hr before the 3 hr meal for 3 days. The total food consumption and body weight gained during the 3 day period were determined. The control group consisted of 16 rats, while the experimental group consists of 8 rats.

[5] = test day 8, dose 100 mg/kg oral
[6] = test day 10, dose 300 mg/kg oral
[7] = test day 13, dose 1000 mg/kg oral

O=C(O)C[C@](O)(C(=O)O)[C@H](Cl)C(=O)O [(+)-threo-Chlorocitric acid]
Food Consumption ([1]; test day 1, dose 3 mg/kg oral): 430 ± 109 g
Food Consumption, % of control ([1]; test day 1, dose 3 mg/kg oral): 70 % of control
Food Consumption ([1]; test day 2, no dose): 502 ± 109 g
Food Consumption, % of control ([1]; test day 2, no dose): 82 % of control
Food Consumption ([1]; test day 3, dose 10 mg/kg oral): 367 ± 114 g
Food Consumption, % of control ([1]; test day 3, dose 10 mg/kg oral): 60 % of control
Food Consumption ([1]; test day 6, dose 30 mg/kg oral): 629 ± 64 g
Food Consumption, % of control ([1]; test day 6, dose 30 mg/kg oral): 103 % of control
Food Consumption ([1]; test day 7, no dose): 397 ± 87 g
Food Consumption, % of control ([1]; test day 7, no dose): 65 % of control
Food Consumption [1, 5]: 477 ± 75 g
Food Consumption, % of control [1, 5]: 78 % of control
Food Consumption ([1]; test day 9, no dose): 585 ± 69 g
Food Consumption, % of control ([1]; test day 9, no dose): 96 % of control
Food Consumption [1, 6]: 436 ± 60 g
Food Consumption, % of control [1, 6]: 71 % of control
Food Consumption [1, 7]: 433 ± 125 g
Food Consumption, % of control [1, 7]: 71 % of control
Food Consumption ([1]; test day 14, no dose): 518 ± 19 g
Food Consumption, % of control ([1]; test day 14, no dose): 85 % of control
Food Consumption ([1]; test day 15, no dose): 622 ± 69 g
Food Consumption, % of control ([1]; test day 15, no dose): 102 % of control
Food Consumption ([1]; test day 16, no dose): 564 ± 106 g
Food Consumption, % of control ([1]; test day 16, no dose): 92 % of control
Food Consumption ([1]; test day 17, no dose): 597 ± 36 g
Food Consumption, % of control ([1]; test day 17, no dose): 98 % of control
Food Consumption ([1]; test day 21, no dose): 578 ± 79 g
Food Consumption, % of control ([1]; test day 21, no dose): 95 % of control
Food Consumption ([1]; test day 22, no dose): 668 ± 57 g
Food Consumption, % of control ([1]; test day 22, no dose): 110 % of control
Food Consumption ([1]; test day 23, no dose): 516 ± 66 g
Food Consumption, % of control ([1]; test day 23, no dose): 85 % of control
Food Consumption ([1]; test day 24, no dose): 539 ± 39 g
Food Consumption, % of control ([1]; test day 24, no dose): 88 % of control
Food Consumption ([1]; test day 27, no dose): 479 ± 92 g
Food Consumption, % of control ([1]; test day 27, no dose): 79 % of control
Food Consumption ([1]; test day 28, no dose): 710 ± 91 g
Food Consumption, % of control ([1]; test day 28, no dose): 116 % of control
Serum, % of control [2]: 60 % of control
Stomach Contents, % of control [2]: 220 % of control
CO2 Production, [14C]alanine converted (isolated rat hepatocytes; 2000 µM): 100 % of control
Cholesterol Synthesis, [14C]alanine converted (isolated rat hepatocytes; 2000 µM): 88 % of control
Fatty Acid Synthesis, 3H2O converted (isolated rat hepatocytes; 2000 µM): 94 % of control
Fatty Acid Synthesis, [14C]alanine converted (isolated rat hepatocytes; 2000 µM): 97 % of control
activity at 2000 µM (isolated rat hepatocytes; read-out: CO2 Production, [14C]alanine converted): 114%
activity at 2000 µM (isolated rat hepatocytes; read-out: Cholesterol Synthesis, [14C]alanine converted): 69%
activity at 2000 µM (isolated rat hepatocytes; read-out: Fatty Acid Synthesis, 3H2O converted): 93%
activity at 2000 µM (isolated rat hepatocytes; read-out: Fatty Acid Synthesis, [14C]alanine converted): 102%
Food Consumption, % of control ([3]; 0.66 mmoles/kg oral): 83 % of control
Food Consumption, % of control ([3]; 2.63 mmoles/kg oral): 38 % of control
3-Day Body Weight Gain, % of initial body weight [4]: -1.7 % of initial body weight
3-Day Food Consumption, % of control [4]: 93 % of control
